Marks after values point to notes of the source that are not given here.
How the values were obtained:
[1] = tested on: Hypothermic restraint stress-induced intraluminal bleeding and gastric lesion; assay: Hypothermic restraint stress-induced ulcers; assay type: in vivo, Albino Wistar rats; design: Gastric Lesion Ulcer Index: scale not given here; settings: hypothermic restraint 3 h, mean ± SE
[2] = tested on: gastric secretion in pylorus-ligated Shay rats; assay: Pylorus-ligated rats: gastric secretion, acidity and lesion index; assay type: in vivo, Albino Wistar rats; design: Ulcer Index, pylorus-ligated Shay rats: scale not given here; settings: i.p., 6 h after pylorus ligation, mean ± SE
Protocol: (§1) Albino Wistar rats of either sex, approximately the same age, weighing 150 to 200 g and fed on a diet of standard chow were used in this study. They were randomly divided into experimental groups of six rats each. Compounds (N-1 to N-18) 12.5, 25, and 50 mg/kg were given orally in the anti-ulcer studies and intraperitoneally for gastric secretion evaluation. The rats were sacrificed, and the stomachs removed and opened along the greater curvature, After washing with saline, the gastric lesions were quantified by a person unaware of the treatments. The animal study protocol was approved by the Research and Ethics Committee of the Experimental Animal Care Society, College of Pharmacy, King Saud University, Riyadh, Saudi Arabia.
Pylorus-ligated rats: Rats were fasted for 36 hours with access to water ad libitum before pylorus ligation under ether anesthesia was carried out. Care was taken not to cause bleeding or to occlude blood vessels. Compounds (N-3, N-8, N-11, and N-15) were administered intraperitoneally immediately after pylorus ligation. The rats were sacrificed at 6 hours after pylorus ligation. The stomachs were removed, the contents were collected, volumes measured, centrifuged and analyzed for tritratable acidity against […], NaOH at pH 7.0. Table 5 provides the effect of compounds on gastric secretion, acidity, and gastric lesion index in pylorus-ligated Shay rats (mean±SE).

[3] = tested on: malondialdehyde in stomach tissue, induced by 80% ethanol; assay: Determination of malondialdehyde (MDA); assay type: in vivo, Albino Wistar rats; settings: mean ± SE
Protocol: as §1
Determination of malondialdehyde (MDA): The animals were sacrificed 1 hour after ethanol administration. The stomachs were removed and each was homogenized in 0.15 mol/L KCl (at 4° C.) in a Potter-Elvehjem type C homogenizer to give a 10% w/v homogenate. Aliquots of homogenate 1 mL in volume were incubated at 37° C. for 3 hours in a metabolic shaker. Then 1 mL of 10% aqueous TCA was added and mixed. The mixture was then centrifuged at 800 g for 10 minutes. One milliliter of the supernatant was removed and mixed with 1 mL of 0.67% w/v thiobarbituric acid in water and placed in a boiling water bath for 10 minutes. The mixture was cooled and diluted with 1 mL distilled water. The absorbance of the solution was then read at 535 nm. The content of malondialdehyde (nmol/g wet tissue) (index of the magnitude of lipid peroxidation) was then calculated, by reference to a standard curve of malondialdehyde solution. Table 7 provides the effect of compounds on the levels of MDA, NP_SH, and total protein in stomach tissue induced by 80% ethanol (mean±SE).

[4] = tested on: gastric mucosal non-protein sulfhydryls, induced by 80% ethanol; assay: Estimation of non-protein sulfhydryls (NP-SH); assay type: in vivo, Albino Wistar rats; settings: stomach tissue, 80% ethanol-treated rats, mean ± SE
Protocol: as §1
Estimation of non-protein sulfhydryls (NP_SH): Gastric mucosal non-protein sulfhydryls were measured according to the method. The glandular part of the stomach was homogenized in ice-cold 0.02 mmol/L ethylenediaminetetraacetic acid (EDTA). Aliquots of 5 mL of the homogenates were mixed in 15 mL test tubes with 4 mL of distilled water and 1 mL of 50% trichloroacetic acid (TCA). The tubes were shaken intermittently for 10 minutes and centrifuged at 3000 r/min. Two milliliters of supernatant were mixed with 4 mL of 0.4 mol/L Tris buffer at pH 8.9. Then 0.1 ML of 5, 5′-dithio-bis (2-nitrobenzoic acid) (DTNB) was added and the sample was shaken. The absorbance was measured within 5 minutes of DTNB addition at 412 nm against a reagent blank.

[5] = tested on: total protein in stomach tissue, induced by 80% ethanol; assay: Total protein in stomach tissue; assay type: in vivo, Albino Wistar rats; settings: mean ± SE
in vivo = settings: mouse
Source text: (§2) At the end of the study period, expired animals were counted for the calculation of LD50. The following arithmetic method from Karber (Arch. Exptl. Pathol. Pharmakol, […], 162, 480-483) was used for the determination of LD50: LD50=LD100−Σ×(a×b)/n
(§3) wherein n=total number of animals in a group; a=the difference between two successive doses of administered extract/substance; b=the average number of dead animals in two successive doses; and LD100=lethal dose causing the 100% death of all test animals.
(§4) Table 8 provides the LD50 values of the compounds determined by the Karber method.

mouse = assay: in vivo; settings: 24 h
Source text: as §2, §3, §4

[6] = tested on: gastric mucosa of rats treated with 80% Ethanol; assay: Histopathological evaluation of gastric tissue; assay type: in vivo, Albino Wistar rats; settings: 50 mg/kg; FIG. 15B-15F
Protocol: Histopathological evaluation: Gastric tissue samples were fixed in neutral buffered formalin for 24 hours. Sections of gastric tissue were histopathologically examined to study the ulcerogenic and/or anti-ulcerogenic activity of compounds (N-3, N-8, N-11, and N-15). The tissues were fixed in 10% buffered formalin and processed using a VIP tissue processor. The processed tissues were embedded in paraffin blocks and sections about […] thick were cut using an American optical rotary microtome. These sections were stained with haematoxylin and eosin using routine procedures. The slides were examined microscopically for pathomorphological changes such as congestion, hemorrhage, edema, and erosions using an arbitrary scale for severity assessment of these changes (FIGS. 3-14).

[7] = dose 12.5, 80% ethanol-treated rats
[8] = dose 25, 80% ethanol-treated rats
[9] = dose 50, 80% ethanol-treated rats

| SMILES | Gastric Lesion Ulcer Index ([1]; 12.5 mg/kg) | Intraluminal Bleeding Score ([1]; 12.5 mg/kg) | Gastric Lesion Ulcer Index ([1]; 50 mg/kg) | Intraluminal Bleeding Score ([1]; 50 mg/kg) | Titratable Acidity ([2]; 12.5 mg/kg) | Ulcer Index, pylorus-ligated Shay rats ([2]; 12.5 mg/kg) | Volume of Gastric Content ([2]; 12.5 mg/kg) | Titratable Acidity ([2]; 25 mg/kg) | Ulcer Index, pylorus-ligated Shay rats ([2]; 25 mg/kg) | Volume of Gastric Content ([2]; 25 mg/kg) | Titratable Acidity ([2]; 50 mg/kg) | Ulcer Index, pylorus-ligated Shay rats ([2]; 50 mg/kg) | Volume of Gastric Content ([2]; 50 mg/kg) | MDA [3, 7] | MDA [3, 8] | MDA [3, 9] | NP-SH ([4]; dose 12.5) | NP-SH ([4]; dose 25) | NP-SH ([4]; dose 50) | Total Protein [5, 7] | further results |
| --- | --- | --- | --- | --- | --- | --- | --- | --- | --- | --- | --- | --- | --- | --- | --- | --- | --- | --- | --- | --- | --- |
| O=C1NC=C(C(=O)c2ccc(N3CCCCC3)cc2)C(c2ccc([N+](=O)[O-])cc2)N1 (centres unmarked) [Compound N-3, 4-(4-Nitrophenyl)-5-[4-(piperidin-1-yl)benzoyl]-3,4-dihyropyrimidin-2(1H)-one] | 24.16 ± 1.70 | 2.83 ± 0.30 | 13.83 ± 0.60 | 1.16 ± 0.30 | 153.88 ± 5.40 mEg/L | 2.33 ± 0.33 | 9.03 ± 0.24 mL | 97.77 ± 2.93 mEg/L | 1.83 ± 0.304 | 6.31 ± 0.25 mL | 84.84 ± 2.38 mEg/L | 1.16 ± 0.30 | 4.63 ± 0.22 mL | 4.47 ± 0.44***^b nmol/g | 3.07 ± 0.16***^b nmol/g | 1.95 ± 0.05***^b nmol/g | 3.15 ± 0.20^b nmol/g | 4.23 ± 0.23**^b nmol/g | 4.56 ± 0.17***^b nmol/g | 58.68 ± 3.19*^b g/L | Gastric Lesion Ulcer Index ([1]; 25 mg/kg): 17.66 ± 0.76; Intraluminal Bleeding Score ([1]; 25 mg/kg): 1.50 ± 0.22; Total Protein [5, 8]: 74.65 ± 3.79*^b g/L; Total Protein [5, 9]: 95.80 ± 1.51***^b g/L; LD50 at 24 h (in vivo): 125 mg/kg; Dead (of 10 animals) (mouse; 5 mg/kg): 0; Dead (of 10 animals) (mouse; 25 mg/kg): 0; Dead (of 10 animals) (mouse; 50 mg/kg): 2; Dead (of 10 animals) (mouse; 100 mg/kg): 5; Dead (of 10 animals) (mouse; 200 mg/kg): 8; Dead (of 10 animals) (mouse; 300 mg/kg): 10; Gastric section, effect on gastric mucosa (histology) [6]: intact mucosa with mild ulceration |
| COc1ccccc1C1NC(=O)NC=C1C(=O)c1ccc(N2CCCCC2)cc1 (centres unmarked) [Compound N-8, 4-(2-Methoxyphenyl)-5-[4-(piperidin-1-yl)benzoyl]-3,4-dihydropyrimidin-2(1H)-one] | 29.83 ± 1.50 | 3.50 ± 0.42 | 18.66 ± 0.55 | 2.50 ± 0.42 | 161.11 ± 4.36 mEg/L | 3.16 ± 0.30 | 10.50 ± 0.34 mL | 133.33 ± 3.22 mEg/L | 2.50 ± 0.22 | 9.36 ± 1.22 mL | 115.00 ± 5.75 mEg/L | 2.00 ± 0.13 | 6.46 ± 0.16 mL | 6.63 ± 0.26^b nmol/g | 4.83 ± 0.24***^b nmol/g | 3.75 ± 0.07***^b nmol/g | 3.49 ± 0.16^b nmol/g | 3.61 ± 0.12^b nmol/g | 4.61 ± 0.27**^b nmol/g | 45.90 ± 1.14^b g/L | Gastric Lesion Ulcer Index ([1]; 25 mg/kg): 27.66 ± 1.60; Intraluminal Bleeding Score ([1]; 25 mg/kg): 3.33 ± 0.21; Total Protein [5, 8]: 55.88 ± 1.71*^b g/L; Total Protein [5, 9]: 66.26 ± 1.47 g/L; LD50 at 24 h (in vivo): 55.5 mg/kg; Dead (of 10 animals) (mouse; 5 mg/kg): 0; Dead (of 10 animals) (mouse; 25 mg/kg): 2; Dead (of 10 animals) (mouse; 50 mg/kg): 6; Dead (of 10 animals) (mouse; 100 mg/kg): 9; Dead (of 10 animals) (mouse; 200 mg/kg): 10; Dead (of 10 animals) (mouse; 300 mg/kg): 10; Gastric section, effect on gastric mucosa (histology) [6]: intact normal mucosa |
| CN(C)c1ccc(C2NC(=O)NC=C2C(=O)c2ccc(N3CCCCC3)cc2)cc1 (centres unmarked) [Compound N-11, 4-(4-Dimethylaminophenyl)-5-[4-(piperidin-1-yl)benzoyl]-3,4-dihydropyrimidin-2(1H)-one] | 29.83 ± 1.51 | 3.66 ± 0.33 | 21.00 ± 0.51 | 2.00 ± 0.36 | 160.55 ± 3.48 mEg/L | 2.83 ± 0.30 | 10.20 ± 0.29 mL | 141.11 ± 6.30 mEg/L | 2.50 ± 0.42 | 7.35 ± 0.19 mL | 116.66 ± 4.63 mEg/L | 2.33 ± 0.71 | 6.63 ± 0.21 mL | 5.16 ± 0.22***^b nmol/g | 3.99 ± 0.17***^b nmol/g | 3.36 ± 0.08***^b nmol/g | 2.93 ± 0.11^b nmol/g | 3.40 ± 0.18^b nmol/g | 4.35 ± 0.11***^b nmol/g | 53.89 ± 1.48*^b g/L | Gastric Lesion Ulcer Index ([1]; 75 mg/kg): 29.00 ± 1.21; Intraluminal Bleeding Score ([1]; 75 mg/kg): 2.66 ± 0.33; Total Protein [5, 8]: 64.27 ± 2.08***^b g/L; Total Protein [5, 9]: 72.25 ± 1.43***^b g/L; Gastric section, effect on gastric mucosa (histology) [6]: intact normal mucosa |

Source: patent US9856232B1, “Dihydropyrimidinone derivatives” (KING SAUD UNIVERSITY, priority 2017, dated 2018)
